# From patent US20240376097A1, “BCL-2 Inhibitor” (BeiGene Ltd., priority 2020, published 2024)
# Where two headings read alike, the source gives them in different places.
# What was measured:
# [1] = system: BCL-2 G101V knock-in cell line H96 (derive from RS4;11); assay: Bcl 2-G101V Knock-In RS4;11 Cell Proliferation Assay; assay type: cell-based; details: Homo sapiens, RS4;11 Bcl-2 G101V knock-in clone H96, 48 hrs, CellTiter-GLO, read-out: Cellular proliferation assay (IC50, nM) RS4
# In short: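 CellTiter-Glo luminescence after 48 h, 37 °C compound treatment (10 concentrations, maximum 1 μM or 10 μM) gave mean IC50 values. Cells were 50,000 per well of H96, a BCL2-G101V knock-in single clone derived from RS4;11 by Cas9 editing.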
# [2] = molecular target: recombinant human Bcl-2 D103Y protein (Homo sapiens (Human), UniProt P10415, D103Y); assay: Bcl-2-D103Y Biochemical Assay (TR-FRET); assay type: binding; details: for IC50: TR-FRET, FITC labeled Bak peptide; for Ratio of Bcl-2 D103Y/Bcl-2 WT: ratio of IC50
# In short: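 Compounds titrated against the Bcl-2 D103Y–ligand interaction; inhibition derived from the TR-FRET emission ratio 490 nm/520 nm after 337 nm excitation. Four-parameter logistic fitting gave IC50.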
# [3] = molecular target: Recombinant human Bcl-2 protein (Homo sapiens (Human), UniProt P10415); assay: Bcl-2 TR-FRET Assay; assay type: binding
# In short: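 In pH 7.5 phosphate buffer containing NaCl, EDTA, Tween-20 and BSA, 0.05 nM Bcl-2 saw serially diluted compound for 0.5 h before 0.5 nM FITC-Bak peptide was added. Signal ratio at 520/490 nm after 1 h yielded IC50.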
# [4] = system: RS4;11 (BCL-2 dependent acute lymphoblastic leukemia cell line); assay: RS4;11 Cell Proliferation Assay; assay type: cell-based; details: Homo sapiens, RS4-11, RS4;11 cells, read-out: Cellular proliferation assay (IC50, nM) RS4
# In short: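 Viability measured via CellTiter-Glo luminescence after a 48 h, 37 °C exposure to compounds (10 points, highest 1 μM). Seeding was 50,000 RS4;11 cells per well in 10% FBS RPMI-1640; IC50 given as mean.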
# [5] = system: recombinant human Bcl-2-G101V protein; assay: Bcl-2-G101V TR-FRET Assay; assay type: binding; details: ratio of biochemical IC50 Bcl-2 G101V / Bcl-2 WT
# In short: (§1)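 Displacement of ligand from recombinant human Bcl-2-G101V measured by TR-FRET (ex337 nm, em490/520 nm), inhibition derived from the 490/520 ratio across compound titrations. IC50 from four-parameter logistic fit.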
# [6] = molecular target: recombinant human Bcl-2-G101V protein (Homo sapiens (Human), UniProt P10415, G101V); assay: Bcl-2-G101V TR-FRET Assay; assay type: binding; details: Bcl-2 G101V mutant, TR-FRET; read-out: Biochemical assay (IC50, nM) Bcl-2 G101V
# In short: as §1
# [7] = Bcl-2 wild type, TR-FRET, read-out: Biochemical assay (IC50, nM) Bcl-2 WT
# [8] = wild type Bcl-2, unit inferred, read-out: Bcl-2 WT
smiles,measurement,setting,value
"CC(C)c1ccccc1C1CN(Cc2cccc3c2OCCO3)CCN1C1CC2(CCN(c3ccc(C(=O)NS(=O)(=O)c4ccc(NC[C@H]5CC[C@](C)(O)CC5)c([N+](=O)[O-])c4)c(Oc4cnc5[nH]ccc5c4)c3)CC2)C1 (some centres unmarked) [Example 79, 2-((1H-pyrrolo[2,3-b]pyridin-5-yl)oxy)-4-(2-(4-((2,3-dihydrobenzo [b][1,4]dioxin-5-yl)methyl)-2-(2-isopropylphenyl)piperazin-1-yl)-7-azaspiro[3.5]nonan-7-yl)-N-((4-((((1r,4r)-4-hydroxy-4-methylcyclohexyl)methyl)amino)-3-nitrophenyl)sulfonyl)benzamide]",IC50,[1],1 nM
same,IC50,[2],0.19 nM
same,Ratio of Bcl-2 D103Y/Bcl-2 WT,[2],1.2
same,IC50,[3]; [7],0.16 nM
same,IC50,[3]; [8],0.16 nM
same,IC50,[4],0.35 nM
same,Ratio of Bcl-2 G101V/WT,[5],3.2
same,IC50,[6],0.51 nM
"COc1ccc(CN2CCN(C3CC4(CCN(c5ccc(C(=O)NS(=O)(=O)c6ccc(NC[C@H]7CC[C@](C)(O)CC7)c([N+](=O)[O-])c6)c(Oc6cnc7[nH]ccc7c6)c5)CC4)C3)[C@H](c3ccccc3C(C)C)C2)c(OC)c1 (single isomer, unassigned) [Example 48a, 2-((1H-pyrrolo[2,3-b]pyridin-5-yl)oxy)-4-(2-((R or S)-4-(2,4-dimethoxybenzyl)-2-(2-isopropylphenyl)piperazin-1-yl)-7-azaspiro[3.5]nonan-7-yl)-N-((4-((((1r,4r)-4-hydroxy-4-methylcyclohexyl)methyl)amino)-3-nitrophenyl)sulfonyl)benzamide]",IC50,[1],0.81 nM
same,IC50,[2],0.1 nM
same,Ratio of Bcl-2 D103Y/Bcl-2 WT,[2],2.3
same,IC50,[3]; [7],0.045 nM
same,IC50,[3]; [8],0.045 nM
same,IC50,[4],0.16 nM
same,Ratio of Bcl-2 G101V/WT,[5],4.6
same,IC50,[6],0.21 nM
"COc1ccc(CN2CCN(C3CC4(CCN(c5ccc(C(=O)NS(=O)(=O)c6ccc(NC[C@H]7CC[C@](C)(O)CC7)c([N+](=O)[O-])c6)c(Oc6cnc7[nH]ccc7c6)c5)CC4)C3)[C@H](c3ccccc3C(C)C)C2)cn1 [Example 185, 2-((1H-pyrrolo[2,3-b]pyridin-5-yl)oxy)-N-((4-((((1r,4r)-4-hydroxy-4-methylcyclohexyl)methyl)amino)-3-nitrophenyl)sulfonyl)-4-(2-((R)-2-(2-isopropylphenyl)-4-((6-methoxypyridin-3-yl)methyl)piperazin-1-yl)-7-azaspiro[3.5]nonan-7-yl)benzamide]",IC50,[1],0.6 nM
same,IC50,[2],0.05 nM
same,Ratio of Bcl-2 D103Y/Bcl-2 WT,[2],1.6
same,IC50,[3]; [7],0.031 nM
same,IC50,[3]; [8],0.031 nM
same,IC50,[4],0.14 nM
same,Ratio of Bcl-2 G101V/WT,[5],4.5
same,IC50,[6],0.14 nM
"Cc1ccc(CN2CCN(C3CC4(CCN(c5ccc(C(=O)NS(=O)(=O)c6ccc(NC[C@H]7CC[C@](C)(O)CC7)c([N+](=O)[O-])c6)c(Oc6cnc7[nH]ccc7c6)c5)CC4)C3)C(c3ccccc3C(C)C)C2)cc1 (some centres unmarked) [Example 30, 2-((1H-pyrrolo[2,3-b]pyridin-5-yl)oxy)-N-((4-((((1r,4r)-4-hydroxy-4-methylcyclohexyl)methyl)amino)-3-nitrophenyl)sulfonyl)-4-(2-(2-(2-isopropylphenyl)-4-(4-methylbenzyl)piperazin-1-yl)-7-azaspiro[3.5]nonan-7-yl) benzamide]",IC50,[1],3.48 nM
same,IC50,[2],0.42 nM
same,Ratio of Bcl-2 D103Y/Bcl-2 WT,[2],1.6
same,IC50,[3]; [7],0.27 nM
same,IC50,[3]; [8],0.27 nM
same,IC50,[4],0.53 nM
same,Ratio of Bcl-2 G101V/WT,[5],4.1
same,IC50,[6],1.1 nM
"COc1ccc(CN2CCN(C3CC4(CCN(c5ccc(C(=O)NS(=O)(=O)c6ccc(NC[C@H]7CC[C@](C)(O)CC7)c([N+](=O)[O-])c6)c(Oc6cnc7[nH]ccc7c6)c5)CC4)C3)[C@@H](c3ccccc3C(C)C)C2)cc1 [Example 19b, 2-((1H-pyrrolo[2,3-b]pyridin-5-yl)oxy)-N-((4-((((1r,4r)-4-hydroxy-4-methylcyclohexyl)methyl)amino)-3-nitrophenyl)sulfonyl)-4-(2-((S)-2-(2-isopropylphenyl)-4-(4-methoxybenzyl)piperazin-1-yl)-7-azaspiro[3.5]nonan-7-yl)benzamide]",IC50,[1],44 nM
same,IC50,[2],16 nM
same,Ratio of Bcl-2 D103Y/Bcl-2 WT,[2],100
same,IC50,[3]; [7],0.16 nM
same,IC50,[3]; [8],0.16 nM
same,IC50,[4],6.8 nM
same,Ratio of Bcl-2 G101V/WT,[5],62.5
same,IC50,[6],10 nM
"COc1cc(CN2CCN(C3CC4(C3)CN(c3ccc(C(=O)NS(=O)(=O)c5ccc(NC[C@H]6CC[C@](C)(O)CC6)c([N+](=O)[O-])c5)c(Oc5cnc6[nH]cc(F)c6c5)c3)C4)[C@H](c3ccccc3C(C)C)C2)ccc1OC1CCC1 [Example 350, 4-(6-((R)-4-(4-cyclobutoxy-3-methoxybenzyl)-2-(2-isopropylphenyl)piperazin-1-yl)-2-azaspiro[3.3]heptan-2-yl)-2-((3-fluoro-1H-pyrrolo[2,3-b]pyridin-5-yl)oxy)-N-((4-((((1r,4r)-4-hydroxy-4-methylcyclohexyl)methyl)amino)-3-nitrophenyl)sulfonyl) benzamide]",IC50,[1],0.79 nM
same,IC50,[2],0.65 nM
same,Ratio of Bcl-2 D103Y/Bcl-2 WT,[2],1.4
same,IC50,[3]; [7],0.48 nM
same,IC50,[3]; [8],0.48 nM
same,IC50,[4],0.23 nM
same,Ratio of Bcl-2 G101V/WT,[5],2.2
same,IC50,[6],0.99 nM
COc1ccc(C(=O)N2CCN(C3CC4(C3)CN(c3ccc(C(=O)NS(=O)(=O)c5ccc(NC[C@H]6CC[C@](C)(O)CC6)c([N+](=O)[O-])c5)c(Oc5cnc6[nH]cc(F)c6c5)c3)C4)[C@H](c3ccccc3C(C)C)C2)cc1 [Example 353],IC50,[1],0.64 nM
same,IC50,[2],0.12 nM
same,Ratio of Bcl-2 D103Y/Bcl-2 WT,[2],1.5
same,IC50,[3]; [7],0.077 nM
same,IC50,[3]; [8],0.07 nM
same,IC50,[4],0.2 nM
same,Ratio of Bcl-2 G101V/WT,[5],3.3
same,IC50,[6],0.25 nM
"COc1cc(CN2CCN(C3CC4(C3)CN(c3ccc(C(=O)NS(=O)(=O)c5ccc(NC[C@H]6CC[C@](C)(O)CC6)c([N+](=O)[O-])c5)c(Oc5cnc6[nH]cc(F)c6c5)c3)C4)[C@H](c3ccccc3C(C)C)C2)ccc1N1CC(OC)C1 [Example 359, 2-((3-fluoro-1H-pyrrolo[2,3-b]pyridin-5-yl)oxy)-N-((4-((((1r,4r)-4-hydroxy-4-methylcyclohexyl)methyl)amino)-3-nitrophenyl)sulfonyl)-4-(6-((R)-2-(2-isopropylphenyl)-4-(3-methoxy-4-(3-methoxyazetidin-1-yl)benzyl)piperazin-1-yl)-2-azaspiro[3.3]heptan-2-yl)benzamide]",IC50,[1],0.63 nM
same,IC50,[2],0.44 nM
same,Ratio of Bcl-2 D103Y/Bcl-2 WT,[2],2.4
same,IC50,[3]; [7],0.19 nM
same,IC50,[3]; [8],0.19 nM
same,IC50,[4],0.16 nM
same,Ratio of Bcl-2 G101V/WT,[5],3.4
same,IC50,[6],0.64 nM
"CC(C)c1ccccc1C1CN(Cc2cccc3c2OCO3)CCN1C1CC2(CCN(c3ccc(C(=O)NS(=O)(=O)c4ccc(NC[C@H]5CC[C@](C)(O)CC5)c([N+](=O)[O-])c4)c(Oc4cnc5[nH]ccc5c4)c3)CC2)C1 (some centres unmarked) [Example 115, 2-((1H-pyrrolo[2,3-b]pyridin-5-yl)oxy)-4-(2-(4-(benzo[d][1,3]dioxol-4-ylmethyl)-2-(2-isopropylphenyl)piperazin-1-yl)-7-azaspiro[3.5]nonan-7-yl)-N-((4-((((1r,4r)-4-hydroxy-4-methylcyclohexyl)methyl)amino)-3-nitrophenyl)sulfonyl)benzamide]",IC50,[1],2.3 nM
same,IC50,[2],0.57 nM
same,Ratio of Bcl-2 D103Y/Bcl-2 WT,[2],5.9
same,IC50,[3]; [7],0.097 nM
same,IC50,[3]; [8],0.097 nM
same,IC50,[4],0.42 nM
same,Ratio of Bcl-2 G101V/WT,[5],3.8
same,IC50,[6],0.37 nM
"CC(C)c1ccccc1C1CN(Cc2ccc3c(c2)OCO3)CCN1C1CC2(CCN(c3ccc(C(=O)NS(=O)(=O)c4ccc(NC[C@H]5CC[C@](C)(O)CC5)c([N+](=O)[O-])c4)c(Oc4cnc5[nH]ccc5c4)c3)CC2)C1 (some centres unmarked) [Example 122, 2-((1H-pyrrolo[2,3-b]pyridin-5-yl)oxy)-4-(2-(4-(benzo[d][1.3]dioxol-5-ylmethyl)-2-(2-isopropylphenyl)piperazin-1-yl)-7-azaspiro[3.5]nonan-7-yl)-N-((4-((((1r,4r)-4-hydroxy-4-methylcyclohexyl)methyl)amino)-3-nitrophenyl)sulfonyl)benzamide]",IC50,[1],2.2 nM
same,IC50,[2],0.47 nM
same,Ratio of Bcl-2 D103Y/Bcl-2 WT,[2],2.5
same,IC50,[3]; [7],0.19 nM
same,IC50,[3]; [8],0.19 nM
same,IC50,[4],0.3 nM
same,Ratio of Bcl-2 G101V/WT,[5],5
same,IC50,[6],0.92 nM
